{"source": "patent US8790712B2", "about": "“Constitutional function-improving agents” (Cosmo Oil Co., Ltd., priority 2004, dated 2014)", "test_system": "glutathione peroxidase (GPx)", "assay": "GPx activity of thymus tissue (Example 3)", "format": "in vivo, mouse", "details": "10 mg/kg orally once a day for 7 days", "experimental": "Mice (35 to 45 weeks old, BALB/cAJc1) preliminary raised for 1 week were injected with 10 mg of ALA hydrochloride per 1 kg mouse body weight once a day for 7 days continuously. ALA hydrochloride was adjusted to a concentration of […] with distilled water and orally administered to the mice. After the test, each mouse was sacrificed and the thymus of mouse was collected to measure superoxide dismutase (SOD) activity of its tissue. To the collected thymus, 1.0 ml of 0.25 M sucrose solution was added, and the mixture homogenized and then centrifuged at 10,000 G for 10 minutes, and the resulting supernatant solution was used as the enzyme solution. […] That is, 250 μl of a reaction solution containing 125 μl of 0.1 M potassium phosphate buffer (pH 7.5), 10 μl of the enzyme liquid, 60 μl of 0.1 unit/ml xanthine oxidase, 45 μl of distilled water and 10 μl of 0.3 mM MPEC was dispensed into Luminescencer-PSN (manufactured by Atto Corp.), 50 μl of 0.72 mM hypoxanthine (pH 7.5) was added for emission. […]\nIn addition, glutathione peroxidase (GPx) activity was also measured. […]\nThe calculation was carried out by the following formula using the molecular extinction coefficient of NADPH of a=6.3 cm^2/μmole, by calculating the slope of straight line ΔOD (ΔOD=Δcm (quantity of change of y axis)×OD Max/full cm) from the chart. […]"}
{"smiles": "NCC(=O)CCC(=O)O", "note": "[ALA, 5-aminolevulinic acid]", "values": [{"measurement": "GPx activity", "setting": "female mice", "value": 0.67, "unit": "U/ml"}, {"measurement": "GPx activity", "setting": "male mice", "value": 0.61, "unit": "U/ml"}]}
